Source: ChEMBL document CHEMBL1121431, “Preparation and biological evaluation of 2-azaergolines” (1980)

What was measured:
Assay type in all cases: functional
Mus musculus [1] = experiment: Percentage inhibition of jumping was measured at 10 mg/kg dose.
Mus musculus [2] = experiment: Percentage inhibition of jumping was measured at 3 mg/kg dose.
Mus musculus [3] = experiment: Total jumps of mice was measured at 10 mg/kg dose.
Mus musculus [4] = experiment: Mean jumps/mouse was measured at 3 mg/kg dose.
Mus musculus [5] = experiment: Total jumps of mice was measured at 3 mg/kg dose.
Mus musculus [6] = experiment: Mean jumps/mouse was measured at 10 mg/kg dose.

CSCC1CC2c3cccc4[nH]nc(c34)CC2N(C)C1 (stereo unspecified) gave an inhibition in vivo at 10 mg/kg (Mus musculus [1]) of 49.6%, an inhibition in vivo at 3 mg/kg (Mus musculus [2]) of 47.9% and an Activity (Mus musculus [3]) of 6096. For the same molecule, the Activity (Mus musculus [4]) was 426, the Activity (Mus musculus [5]) was 5113 and the Activity (Mus musculus [6]) was 508.
